Patent US20260027100A1, “THERAPEUTIC TYROSINE KINASE INHIBITORS FOR MYELIN OLIGODENDROCYTE GLYCOPROTEIN ANTIBODY DISEASE (MOGAD)” (Principia Biopharma Inc., priority 2022, published 2026)

How the values were obtained:
Assay type in all cases: in vivo, human
[1] = Ongoing tolebrutinib Phase 3 trials: hepatic safety; conditions: ongoing Phase 3 trials
Excerpt: Thus, there is a need to mitigate the risk of hepatic injury and provide safe treatment for patients with MOGAD.

[2] = Phase 2b dose-finding trial (DRI15928): PK data and effect of fed status on tolebrutinib exposure; conditions: effect of fed status on exposure; Phase 2b trial in relapsing multiple sclerosis
Description: (§1) The choice of the dose of 60 mg of the BTK inhibitor taken with food is based on the results of a Phase 2b dose-finding trial for tolebrutinib in participants with relapsing multiple sclerosis (DRI15928). See for example, Reich, D. S., et al., Safety and efficacy of tolebrutinib, an oral brain-penetrant BTK inhibitor, in relapsing multiple sclerosis: a phase 2b, randomised, double-blind, placebo-controlled trial. Lancet Neurol, 2021. 20(9): p. 729-738.
(§2) The choice of the dose of 60 mg tolebrutinib taken with food is based on the results of the Phase 2b dose-finding trial for tolebrutinib in adult participants with relapsing multiple sclerosis (DRI15928).

[3] = test system: participants with relapsing multiple sclerosis; test: Phase 2b dose-finding trial (DRI15928): treatment response versus exposure, new gadolinium-enhancing T1-hyperintense lesions; conditions: after 12 weeks of treatment
Description: as §1, §2

[4] = test system: participants with relapsing multiple sclerosis; test: Phase 2b dose-finding trial (DRI15928): safety (TEAEs, AESIs, PCSAs); conditions: Phase 2b trial
Description: as §1
There were low numbers of AESIs and PCSAs observed.
as §2

In the case of `C=CC(=O)N1CCC[C@@H](n2c(=O)n(-c3ccc(Oc4ccccc4)cc3)c3c(N)nccc32)C1` [tolebrutinib, (R)-1-(1-acryloylpiperidin-3-yl)-4-amino-3-(4-phenoxyphenyl)-1H-imidazo[4,5-c]pyridin-2(3H)-one], the drug-induced liver injury [1] is reported as “Drug-induced liver injury has been identified”, the “time of occurrence of reported liver injury events after start of administration” value [1] is reported as 2 to 3 months and the “course of liver enzyme elevation after discontinuation” value ([1]; after tolebrutinib discontinuation) is reported as “appears reversible”. The “increase in AUC0-24 (positive food effect)” value [2] was “approximately 2 fold”, the “correlation between treatment response and exposure (new gadolinium-enhancing T1-hyperintense lesions)” value [3] was “higher exposure was associated with low numbers of new gadolinium-enhancing T1-hyperintense lesions” and the “numbers of AESIs and PCSAs observed” value [4] was “low numbers”. For the same compound, the new risks identified ([4]; overall) was “no new risks were identified”, the “correlation between dose administered and number of TEAEs” value ([4]; tolebrutinib treatment arms) was “no correlation” and the “most common events (preferred terms)” value ([4]; tolebrutinib treatment arms) was “headache, upper respiratory tract infection, and nasopharyngitis”.
